Our source for the IC50 values is patent US10640506B2, “Cyclobutyl substituted pyrrolopyridine and pyrrolopyrimidines derivatives as JAK inhibitors” (Incyte Corporation, priority 2010, dated 2020).

Where a name gives a salt, the structure may show the parent alone. Read-outs that look alike come from different tables or passages of the source. Bounds are passed on as bounds.

In assay [1] the target is human JAK1 (a.a. 837-1142) (Homo sapiens, UniProt P23458). The assay can be described thus: In vitro JAK kinase assay (HTRF, phosphorylation of biotinylated peptide), JAK1. The class given is biochemical. The protocol:
Compounds herein were tested for inhibitory activity of JAK targets according to the following in vitro assay described in Park et al., Analytical Biochemistry 1999, 269, 94-104. The catalytic domains of human JAK1 (a.a. 837-1142) and JAK2 (a.a. 828-1132) with an N-terminal His tag were expressed using baculovirus in insect cells and purified. The catalytic activity of JAK1 and JAK2 was assayed by measuring the phosphorylation of a biotinylated peptide. The phosphorylated peptide was detected by homogenous time resolved fluorescence (HTRF). […] Reactions were carried out at room temperature for 1 hour and then stopped with 20 μL 45 mM EDTA, 300 nM SA-APC, 6 nM Eu-Py20 in assay buffer (Perkin Elmer, Boston, Mass.). Binding to the Europium labeled antibody took place for 40 minutes and HTRF signal was measured on a Fusion plate reader (Perkin Elmer, Boston, Mass.). […] Data is indicated as ranges, wherein “+” is less than 10 nM; “++” is 10 nM to 25 nM; “+++” is greater than 25 nM to 100 nM; and “++++” is greater than 100 nM. Greater than 25 nM to 100 nM specifies a range with a lower endpoint “at greater than 25 nM” and an upper endpoint at 100 nM.
(TR-FRET usually uses a lanthanide donor and a delayed reading to cut background.)

The target of the next assay is T1, JAK2 (a.a. 828-1132) (Homo sapiens, UniProt O60674).
T1 construct: JAK2 (a.a. 828-1132); His tag (N)
T1 sequence (O60674 828-1132): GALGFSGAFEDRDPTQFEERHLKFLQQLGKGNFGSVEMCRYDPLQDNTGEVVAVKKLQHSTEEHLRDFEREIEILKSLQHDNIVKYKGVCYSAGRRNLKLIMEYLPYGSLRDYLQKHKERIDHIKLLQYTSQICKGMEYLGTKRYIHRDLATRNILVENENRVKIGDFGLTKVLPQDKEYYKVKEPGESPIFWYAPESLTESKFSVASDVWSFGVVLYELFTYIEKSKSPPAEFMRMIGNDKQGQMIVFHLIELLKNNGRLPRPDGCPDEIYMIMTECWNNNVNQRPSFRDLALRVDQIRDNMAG
Briefly: In vitro JAK kinase assay (HTRF, phosphorylation of biotinylated peptide), JAK2. The class given is biochemical. The protocol: Compounds herein were tested for inhibitory activity of JAK targets according to the following in vitro assay described in Park et al., Analytical Biochemistry 1999, 269, 94-104. The catalytic domains of human JAK1 (a.a. 837-1142) and JAK2 (a.a. 828-1132) with an N-terminal His tag were expressed using baculovirus in insect cells and purified. The catalytic activity of JAK1 and JAK2 was assayed by measuring the phosphorylation of a biotinylated peptide. The phosphorylated peptide was detected by homogenous time resolved fluorescence (HTRF). […] Reactions were carried out at room temperature for 1 hour and then stopped with 20 μL 45 mM EDTA, 300 nM SA-APC, 6 nM Eu-Py20 in assay buffer (Perkin Elmer, Boston, Mass.). Binding to the Europium labeled antibody took place for 40 minutes and HTRF signal was measured on a Fusion plate reader (Perkin Elmer, Boston, Mass.). See Tables A-F for data related to compounds of the Examples (at 1 mM). Data is indicated as ranges, wherein “+” is less than 10 nM; “++” is 10 nM to 25 nM; “+++” is greater than 25 nM to 100 nM; and “++++” is greater than 100 nM. Greater than 25 nM to 100 nM specifies a range with a lower endpoint “at greater than 25 nM” and an upper endpoint at 100 nM.

Setting [2] is: read-out: JAK2 IC50 (nM) at 1 mM ATP, Table F.
The mark [3] stands for this setting: Table A, 1 mM ATP, read-out: JAK1 IC50.
[4] abbreviates: Table A, 1 mM ATP, read-out: JAK2 IC50.
Setting [5] is: Table B, 1 mM ATP, read-out: JAK1 IC50.
The mark [6] stands for this setting: Table B, 1 mM ATP, read-out: JAK2 IC50.

human JAK1 (a.a. 837-1142), sequence (P23458 849-1154): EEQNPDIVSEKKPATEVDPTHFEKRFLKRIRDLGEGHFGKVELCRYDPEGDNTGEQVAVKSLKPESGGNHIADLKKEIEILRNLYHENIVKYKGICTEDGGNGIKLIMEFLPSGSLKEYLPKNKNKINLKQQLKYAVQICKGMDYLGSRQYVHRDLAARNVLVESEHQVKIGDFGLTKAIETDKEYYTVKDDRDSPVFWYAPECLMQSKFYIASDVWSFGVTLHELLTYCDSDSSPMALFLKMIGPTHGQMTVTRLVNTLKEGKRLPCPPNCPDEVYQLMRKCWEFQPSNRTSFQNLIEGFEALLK

Turning to `C[C@H]1CCCN1Cc1cc(F)cc(OC2CCN(C3CC(CC#N)(n4cc(-c5ncnc6[nH]ccc56)cn4)C3)CC2)c1` (single isomer, unassigned; isomer 2) [Example 41, isomer 2], the IC50 was less than 10 nM in assay [1] (read-out: JAK1 IC50 (nM) at 1 mM, Table E, 1 mM ATP) and less than 10 nM at JAK2 (a.a. 828-1132) (Table E, 1 mM ATP, listed as 41, isomer 2, read-out: JAK2 IC50 (nM) +).

As to `N#CCC1(n2cc(-c3ncnc4[nH]ccc34)cn2)CC(N2CCC(Oc3cc(CCO)nc(C(F)(F)F)n3)CC2)C1` (single isomer, unassigned; peak 1) [Example 164, peak 1, {trans-3-(4-{[6-(2-hydroxyethyl)-2-(trifluoromethyl)pyrimidin-4-yl]oxy}piperidin-1-yl)-1-[4-(7H-pyrrolo[2,3-d]pyrimidin-4-yl)-1H-pyrazol-1-yl]cyclobutyl}acetonitrile], the IC50 in assay [1] (read-out: JAK1 IC50 (nM) at 1 mM ATP, Table F, listed as 164, peak 1) was 10 to 25 nM; at JAK2 (a.a. 828-1132) (setting [2]) it was greater than 100 nM.

Turning to `N#CCC1(n2cc(-c3ncnc4[nH]ccc34)cn2)CC(N2CCC(Oc3cc(CCO)nc(C(F)(F)F)n3)CC2)C1` (single isomer, unassigned; peak 2) [Example 164, peak 2, {cis-3-(4-{[6-(2-hydroxyethyl)-2-(trifluoromethyl)pyrimidin-4-yl]oxy}piperidin-1-yl)-1-[4-(7H-pyrrolo[2,3-d]pyrimidin-4-yl)-1H-pyrazol-1-yl]cyclobutyl}acetonitrile], the IC50 in assay [1] (read-out: JAK1 IC50 (nM) at 1 mM ATP, Table F, listed as 164, peak 2) was 25 to 100 nM; on JAK2 (a.a. 828-1132) (setting [2]), greater than 100 nM.

As to `N#CC[C@]1(n2cc(-c3ncnc4[nH]ccc34)cn2)C[C@@H](N2CCN(Cc3cc(F)cc(C#N)c3)CC2)C1` [Example 1a, 3-[(4-{cis-3-(cyanomethyl)-3-[4-(7H-pyrrolo[2,3-d]pyrimidin-4-yl)-1H-pyrazol-1-yl]cyclobutyl}piperazin-1-yl)methyl]-5-fluorobenzonitrile], the IC50 is less than 10 nM in assay [1] (setting [3]) and greater than 100 nM on JAK2 (a.a. 828-1132) (setting [4]).

Take `N#CC[C@]1(n2cc(-c3ncnc4[nH]ccc34)cn2)C[C@H](N2CCN(Cc3cc(F)cc(C#N)c3)CC2)C1` [Example 1b, 3-[(4-{trans-3-(cyanomethyl)-3-[4-(7H-pyrrolo[2,3-d]pyrimidin-4-yl)-1H-pyrazol-1-yl]cyclobutyl}piperazin-1-yl)methyl]-5-fluorobenzonitrile]: the IC50 is less than 10 nM in assay [1] (setting [5]) and 25 to 100 nM on JAK2 (a.a. 828-1132) (setting [6]).

`CN(C)c1ccc(CN2CCN([C@H]3C[C@@](CC#N)(n4cc(-c5ncnc6[nH]ccc56)cn4)C3)CC2)c(F)c1C#N` [Example 2a, 3-[(4-{cis-3-(cyanomethyl)-3-[4-(7H-pyrrolo[2,3-d]pyrimidin-4-yl)-1H-pyrazol-1-yl]cyclobutyl}piperazin-1-yl)methyl]-6-(dimethylamino)-2-fluorobenzonitrile]: the IC50 in assay [1] (setting [3]) is less than 10 nM; at JAK2 (a.a. 828-1132) (setting [4]) it was 25 to 100 nM.

As for `CN(C)c1ccc(CN2CCN([C@H]3C[C@](CC#N)(n4cc(-c5ncnc6[nH]ccc56)cn4)C3)CC2)c(F)c1C#N` [Example 2b, 3-[(4-{trans-3-(cyanomethyl)-3-[4-(7H-pyrrolo[2,3-d]pyrimidin-4-yl)-1H-pyrazol-1-yl]cyclobutyl}piperazin-1-yl)methyl]-6-(dimethylamino)-2-fluorobenzonitrile], the figures for the IC50 (in assay [1] (setting [5]); at JAK2 (a.a. 828-1132) (setting [6])) were less than 10 nM and 25 to 100 nM, respectively.

Regarding `N#CC[C@]1(n2cc(-c3ncnc4[nH]ccc34)cn2)C[C@@H](N2CCN(C(=O)Nc3ccc(F)cc3C(F)(F)F)CC2)C1` [Example 3a, 4-{cis-3-(cyanomethyl)-3-[4-(7H-pyrrolo[2,3-d]pyrimidin-4-yl)-1H-pyrazol-1-yl]cyclobutyl}-N-[4-fluoro-2-(trifluoromethyl)phenyl]piperazine-1-carboxamide 2.4×(trifluoroacetate) Salt], the figures for the IC50 (in assay [1] (setting [3]); on JAK2 (a.a. 828-1132) (setting [4])) were 25 to 100 nM and greater than 100 nM, respectively.

As for `N#CC[C@]1(n2cc(-c3ncnc4[nH]ccc34)cn2)C[C@H](N2CCN(C(=O)Nc3ccc(F)cc3C(F)(F)F)CC2)C1` [Example 3b, 4-{3-(cyanomethyl)-3-[4-(7H-pyrrolo[2,3-d]pyrimidin-4-yl)-1H-pyrazol-1-yl]cyclobutyl}-N-[4-fluoro-2-(trifluoromethyl)phenyl]piperazine-1-carboxamide 2.3×(trifluoroacetate) Salt], the IC50 in assay [1] (setting [5]) was 10 to 25 nM; at JAK2 (a.a. 828-1132) (setting [6]), greater than 100 nM.

On to `C[C@H]1CCCN1C(=O)N1CCN([C@H]2C[C@@](CC#N)(n3cc(-c4ncnc5[nH]ccc45)cn3)C2)CC1` [Example 4a, {cis-3-(4-{[(2S)-2-methylpyrrolidin-1-yl]carbonyl}piperazin-1-yl)-1-[4-(7H-pyrrolo[2,3-d]pyrimidin-4-yl)-1H-pyrazol-1-yl]cyclobutyl}acetonitrile], for which the IC50 in assay [1] (setting [3]) is 25 to 100 nM; at JAK2 (a.a. 828-1132) (setting [4]), greater than 100 nM.

Turning to `C[C@H]1CCCN1C(=O)N1CCN([C@H]2C[C@](CC#N)(n3cc(-c4ncnc5[nH]ccc45)cn3)C2)CC1` [Example 4b, {trans-3-(4-{[(2S)-2-methylpyrrolidin-1-yl]carbonyl}piperazin-1-yl)-1-[4-(7H-pyrrolo[2,3-d]pyrimidin-4-yl)-1H-pyrazol-1-yl]cyclobutyl}acetonitrile], the half-inhibitory concentration (IC50) in assay [1] (setting [5]) is less than 10 nM; at JAK2 (a.a. 828-1132) (setting [6]), greater than 100 nM.

As to `CC[C@H]1CCCN1C(=O)N1CCN([C@H]2C[C@](CC#N)(n3cc(-c4ncnc5[nH]ccc45)cn3)C2)CC1` [Example 5, {trans-3-(4-{[(2S)-2-ethylpyrrolidin-1-yl]carbonyl}piperazin-1-yl)-1-[4-(7H-pyrrolo[2,3-d]pyrimidin-4-yl)-1H-pyrazol-1-yl]cyclobutyl}acetonitrile], the IC50 in assay [1] (setting [5]) was less than 10 nM; at JAK2 (a.a. 828-1132) (setting [6]), greater than 100 nM.

On to `N#CC[C@]1(n2cc(-c3ncnc4[nH]ccc34)cn2)C[C@@H](N2CCN(C(=O)c3ccnc(C(F)(F)F)c3F)CC2)C1` [Example 6a, {cis-3-{4-[3-fluoro-2-(trifluoromethyl)isonicotinoyl]piperazin-1-yl}-1-[4-(7H-pyrrolo[2,3-d]pyrimidin-4-yl)-1H-pyrazol-1-yl]cyclobutyl}acetonitrile], for which the results for the IC50 (in assay [1] (setting [3]); at JAK2 (a.a. 828-1132) (setting [4])) were 10 to 25 nM and greater than 100 nM, respectively.

For the compound `N#CC[C@]1(n2cc(-c3ncnc4[nH]ccc34)cn2)C[C@H](N2CCN(C(=O)c3ccnc(C(F)(F)F)c3F)CC2)C1` [Example 6b, {trans-3-{4-[3-fluoro-2-(trifluoromethyl)isonicotinoyl]piperazin-1-yl}-1-[4-(7H-pyrrolo[2,3-d]pyrimidin-4-yl)-1H-pyrazol-1-yl]cyclobutyl}acetonitrile], the IC50 in assay [1] (setting [5]) is less than 10 nM; on JAK2 (a.a. 828-1132) (setting [6]) it was 25 to 100 nM.

`N#CC[C@]1(n2cc(-c3ncnc4[nH]ccc34)cn2)C[C@@H](N2CCN(C(=O)c3ccnc(C(F)(F)F)n3)CC2)C1` [Example 7a, [cis-1-[4-(7H-pyrrolo[2,3-d]pyrimidin-4-yl)-1H-pyrazol-1-yl]-3-(4-{[2-(trifluoromethyl)pyrimidin-4-yl]carbonyl}piperazin-1-yl)cyclobutyl]acetonitrile]: the IC50 is 10 to 25 nM in assay [1] (setting [3]) and greater than 100 nM on JAK2 (a.a. 828-1132) (setting [4]).

Take `N#CC[C@]1(n2cc(-c3ncnc4[nH]ccc34)cn2)C[C@H](N2CCN(C(=O)c3ccnc(C(F)(F)F)n3)CC2)C1` [Example 7b, [trans-1-[4-(7H-pyrrolo[2,3-d]pyrimidin-4-yl)-1H-pyrazol-1-yl]-3-(4-{[2-(trifluoromethyl)pyrimidin-4-yl]carbonyl}piperazin-1-yl)cyclobutyl]acetonitrile]: the IC50 is less than 10 nM in assay [1] (setting [5]) and 25 to 100 nM on JAK2 (a.a. 828-1132) (setting [6]).

In general, IC50 refers to the midpoint of a concentration-inhibition curve.
